According to patent US20190345146A1, “NITROGEN CONTAINING BICYCLIC DERIVATIVES FOR TREATING PAIN AND PAIN RELATED CONDITIONS” (ESTEVE PHARMACEUTICALS, S.A., priority 2016, published 2019):
Read-outs that look alike come from different tables or passages of the source.

Tests used:
[1] = molecular target: human α2δ-1 subunit of Cav2.2 calcium channel (Homo sapiens, UniProt P54289); test: Binding assay to human α2δ-1 subunit of Cav2.2 calcium channel ([3H]-Gabapentin); details: read-out: Ki(nM) alpha2delta Hum
Experimental: • Binding assay to human α2δ-1 subunit of Cav2.2 calcium channel.
Human α2δ-1 enriched membranes (2.5 μg) were incubated with 15 nM of radiolabeled [3H]-Gabapentin in assay buffer containing Hepes-KOH 10 mM, pH 7.4.
(§1) NSB (non specific binding) was measured by adding 10 μM pregabalin. The binding of the test compound was measured at five different concentrations. After 60 min of incubation at 27° C., the binding reaction was terminated by filtering through Multiscreen GF/C (Millipore) presoaked in 0.5% polyethyleneimine in Vacuum Manifold Station, followed by 3 washes with ice-cold filtration buffer containing 50 mM Tris-HCl, pH 7.4.
(§2) Filter plates were dried at 60° C. for 1 h and 30 μl of scintillation cocktail were added to each well before radioactivity reading.
(§3) Readings were performed in a Trilux 1450 Microbeta radioactive counter (Perkin Elmer). • Binding assay to human norepinephrine transporter (NET).

[2] = molecular target: human norepinephrine transporter (NET) (Homo sapiens, UniProt P23975); test: Binding assay to human norepinephrine transporter (NET) ([3H]-Nisoxetin); details: Table 2, dual compounds, human NET enriched membranes, read-out: Ki(nM) NET Hum
Experimental: as §3
Human norepinephrine transporter (NET) enriched membranes (5 μg) were incubated with 5 nM of radiolabeled [3H]-Nisoxetin in assay buffer containing 50 mM Tris-HCl, 120 mM NaCl, 5 mM KCl, pH 7.4.
as §1, with “desipramine.” for “pregabalin.”, “min” for “min of”, “4°” for “27°”, “C.,” for “C., the”, “Tris-HCl, 0.9% NaCl,” for “Tris-HCl,”
as §2
Readings were performed in a Trilux 1450 Microbeta radioactive counter (Perkin Elmer).

Chain of human α2δ-1 subunit of Cav2.2 calcium channel (P54289 25-1103): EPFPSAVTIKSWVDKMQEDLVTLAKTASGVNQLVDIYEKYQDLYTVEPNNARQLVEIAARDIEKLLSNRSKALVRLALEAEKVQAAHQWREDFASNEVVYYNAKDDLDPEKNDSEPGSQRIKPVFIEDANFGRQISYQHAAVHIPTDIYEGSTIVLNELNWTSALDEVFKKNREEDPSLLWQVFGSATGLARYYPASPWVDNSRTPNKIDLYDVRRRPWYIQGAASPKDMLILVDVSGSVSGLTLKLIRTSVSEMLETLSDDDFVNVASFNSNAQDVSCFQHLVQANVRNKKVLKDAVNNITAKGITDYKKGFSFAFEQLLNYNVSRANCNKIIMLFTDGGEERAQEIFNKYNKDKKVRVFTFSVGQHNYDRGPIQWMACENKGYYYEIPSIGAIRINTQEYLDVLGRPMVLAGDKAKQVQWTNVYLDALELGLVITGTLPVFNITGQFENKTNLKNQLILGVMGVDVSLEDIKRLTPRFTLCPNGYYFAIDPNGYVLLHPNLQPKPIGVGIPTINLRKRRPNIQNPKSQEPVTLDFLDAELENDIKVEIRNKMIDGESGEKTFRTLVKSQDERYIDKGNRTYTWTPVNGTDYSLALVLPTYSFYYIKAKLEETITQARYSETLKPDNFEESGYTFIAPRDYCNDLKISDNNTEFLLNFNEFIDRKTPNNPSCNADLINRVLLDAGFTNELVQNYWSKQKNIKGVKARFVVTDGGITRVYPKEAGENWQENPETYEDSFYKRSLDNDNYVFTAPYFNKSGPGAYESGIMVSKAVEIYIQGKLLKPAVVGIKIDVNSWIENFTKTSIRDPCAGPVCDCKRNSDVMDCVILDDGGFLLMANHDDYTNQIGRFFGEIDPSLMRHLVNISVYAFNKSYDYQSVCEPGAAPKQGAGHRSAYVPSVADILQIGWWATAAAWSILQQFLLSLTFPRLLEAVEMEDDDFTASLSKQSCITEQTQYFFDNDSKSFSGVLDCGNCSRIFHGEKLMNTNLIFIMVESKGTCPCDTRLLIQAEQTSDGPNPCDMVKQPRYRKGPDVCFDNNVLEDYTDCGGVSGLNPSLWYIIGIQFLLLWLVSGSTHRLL
Chain of human norepinephrine transporter (NET) (P23975 whole entry): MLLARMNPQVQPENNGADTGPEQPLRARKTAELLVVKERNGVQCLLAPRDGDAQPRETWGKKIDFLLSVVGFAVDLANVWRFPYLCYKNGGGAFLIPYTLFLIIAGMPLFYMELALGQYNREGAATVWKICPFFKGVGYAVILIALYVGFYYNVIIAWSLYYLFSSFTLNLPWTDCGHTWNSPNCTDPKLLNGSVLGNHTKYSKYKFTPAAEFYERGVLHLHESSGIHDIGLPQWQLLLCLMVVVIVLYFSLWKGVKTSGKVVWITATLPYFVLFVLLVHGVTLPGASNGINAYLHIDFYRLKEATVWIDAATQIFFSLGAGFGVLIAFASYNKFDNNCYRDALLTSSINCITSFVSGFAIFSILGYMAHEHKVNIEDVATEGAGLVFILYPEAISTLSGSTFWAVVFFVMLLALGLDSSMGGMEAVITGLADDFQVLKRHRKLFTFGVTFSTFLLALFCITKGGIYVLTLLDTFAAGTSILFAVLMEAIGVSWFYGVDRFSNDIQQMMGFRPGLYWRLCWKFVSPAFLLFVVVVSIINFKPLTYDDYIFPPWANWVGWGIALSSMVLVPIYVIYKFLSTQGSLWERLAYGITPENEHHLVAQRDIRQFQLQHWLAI

- Ki ([1]; Table 1, human α2δ-1 enriched membranes): 100 to 500 nM
- Ki ([1]; Table 2, dual compounds, human α2δ-1 enriched membranes): 100 to 500 nM
- Ki [2]: 500 to 1000 nM
SMILES: CNCCC(Oc1cccc2c1CCN(CC(F)F)C2)c1cccs1 (stereo not drawn) [Example 3, 3-((2-(2,2-difluoroethyl)-1,2,3,4-tetrahydroisoquinolin-5-yl)oxy)-N-methyl-3-(thiophen-2-yl)propan-1-amine]
